From a melting point compilation (Tetko et al.; mined from patent text by program, amines drawn as free bases though some values may be those of a salt)

| melting point | SMILES |
| --- | --- |
| 195 °C | COc1ccc(F)cc1NC(=O)Nc1ccc(N2CCN(C(=O)Nc3ccc(OCC(O)CO)cc3C(F)(F)F)CC2)nc1 (stereo unspecified) |
| 30 to 32 °C | COC(=O)Cc1c(Cl)ncnc1N(C)C |
| 193 °C | CCCCCCCCCCCCCCCCCCSC(=O)Nc1ccc(NC(=O)NS(=O)(=O)c2ccc3ccccc3c2)cc1 |
| 163 to 164 °C | Cc1cccc(C)c1NC=O |
| 160 to 164 °C | CC(=O)NC1CCC(=O)c2sccc21 (stereo unspecified) |
| 100 to 101 °C | CCCCCCc1sc(C(N)=O)c2c1-c1c(cnn1C)CC2 |
| 196 to 198 °C | CC(C)(C)OC(=O)N1CCCC(C(=O)N2CCC(c3[nH]nc4c3C(=O)c3c(NC(=O)NN5CCOCC5)cccc3-4)CC2)C1 (stereo unspecified) |
| 266 to 268 °C | O=c1[nH]cc(Cl)c2ccc(CO)cc12 |
| 184 to 185 °C | O=C(Nc1nc2ccccc2n1CCCN1CCNCC1)c1ccc(C(F)(F)F)cc1 |
| 146 to 149 °C | O=C(Oc1ccccc1)c1ccc(-c2ccccc2)cc1 |
| 88 to 89 °C | CN(CCO)c1cc(C(c2cc(F)ccc2F)S(=O)(=O)c2ccc(Cl)cc2)c(Cl)cn1 (stereo unspecified) |
| 188 to 192 °C | CCN1C(=O)C(C)(C)C(=O)N(C)c2cc(CN(CCn3cc(C)c4occc4c3=O)Cc3ncccc3N)ccc21 |
| 230 to 231 °C | CC(C)(C)C1=CC(=Nc2cccc(C(=O)O)c2)C=C(C(C)(C)C)C1=O |
| 132 to 134 °C | O=c1n(CCCCN2CCN(c3cccc(Cl)c3)CC2)nc2n1-c1ccccc1OC2 |
| 284 to 286 °C | Cc1[nH]c(C)c(-c2ccc(Oc3ccc(OC(F)(F)F)cc3)cc2)c(=O)c1Br |
| 222 to 224 °C | Cc1nc(NCCSCc2nc[nH]c2C)[nH]c(=O)c1CCc1ccccc1 |
| 172 °C | COc1cc(O)c(CC=C(C)C)c(O)c1C(=O)C=Cc1ccc(O)cc1 |
| 226 to 230 °C | O=c1cc(-c2ccccc2)cc[nH]1 |
| 71 to 72 °C | C=CCC(C)(C)C(=O)NC1CCCNC(=O)C1 (stereo unspecified) |
| 185 to 186 °C | CC(=NNc1c(Cl)cc(C(F)(F)F)cc1Cl)C(=NO)C(=O)Nc1ccccc1 |
| 158 to 160 °C | CN(C(=O)Nc1ccccc1)c1ccc(Cl)cc1C(=O)c1ccccc1 |
| 161 °C | Clc1ccc(C=CC=Cc2ccccc2)cc1 |
| 187 to 188 °C | C=CCNC(=O)NS(=O)(=O)c1ccccc1OC(Cl)=CCl |

| melting point | SMILES |
| --- | --- |
| 185 to 186 °C | N#CCCNC(=O)c1cccc(-c2cccc3nn(Cc4cccc(Cl)c4)cc23)c1 |
| 116 to 118 °C | CCn1nc(N)nc1NCCCOc1cccc(CN2CCCCC2)c1 |
| 202 to 204 °C | COc1ccc(CC(=O)Nc2c(C)c(C)c3oc(C)c(-c4ccc(C(C)C)cc4)c3c2C)cc1 |
| 133 to 135 °C | CNc1nn(C(=O)NC(C)CCc2ccccc2Cl)c(=O)n1C (stereo unspecified) |
| 203 to 209 °C | Cc1cc2c(cc1Cl)C(c1ccccc1Cl)C(=O)N2 (stereo unspecified) |
| 190 to 191 °C | CC[C@@]12C[C@@](C)(O)[C@](O)(c3ccccc3)C[C@H]1CCc1cc(OCC(=O)O)ccc12 |
| 73 to 77 °C | C=CCOC(=O)/C=C/c1c[nH]c2ccc(OCc3ccccc3)cc12 |
| 165 °C | Cc1ccc(S(=O)(=O)N2Cc3sccc3-n3cccc3C2)cc1 |
| 184 to 185 °C | CC1=C(C(=O)OC(C)(C)C)C(c2ccccc2I)C(C(=O)OC(C)(C)C)=C(C)N1 |
| 162 to 163 °C | CC(C)(C)C1=CC(=Cc2ccc([N+](=O)[O-])cc2)C=C(C(C)(C)C)C1=O |
| 84 to 95 °C | COc1cc2c(cc1Nc1ncc(Cl)c(Nc3ccccc3S(=O)(=O)N(C)C)n1)CCN(C(=O)CN1CCOCC1)CC2 |
| 177 to 178 °C | CON=CC(C)(C)C(O)(COc1cccc2ccccc12)Cn1ccnc1 (stereo unspecified) |
| 120 to 125 °C | COc1ccccc1NC(=O)Nc1nc(Nc2ccccc2-c2ccccc2)nc(N(CC(=O)O)Cc2ccc(F)cc2)n1 |
| 199 °C | O=C(NC1CCC(CCN2CCC(c3cccc4c3CCO4)CC2)CC1)C1CC1(F)F (stereo unspecified) |
| 127 to 131 °C | CC1(C)[C@@H](NCC(=O)N2C[C@@H](F)C[C@H]2C#N)CC[C@@]1(C)c1nc(-c2ccc(F)cc2)no1 |
| 138 to 139 °C | CC(C)N[C@@H]1CCc2c(ccc(OCc3ccccc3)c2CO)[C@H]1O (relative stereo) |
| 89 to 96 °C | C=CCn1c(=O)c(C(=O)OCC)c(N2CCN(C(=O)c3cccs3)CC2)c2cccnc21 |
| 237 to 238 °C | Cc1c(Cc2nc3n(-c4c(Cl)cc(Cl)cc4Cl)[nH]c(C(C)C)c-3c(=O)n2)cccc1NC(=O)CCl |
| 82 to 83.5 °C | FS(F)(F)(F)(Cl)c1cccc(S(F)(F)(F)(F)Cl)c1 |
| 255 to 257 °C | CCOC(=O)c1cn2c3c(c(F)c(F)c(N)c3c1=O)CCN2C |
| 218 to 219 °C | COc1ccc2cc(C(N)=O)c(N)nc2c1OC |
| > 260 °C | O=C(Nc1ccc(-c2nnn[nH]2)cc1)Oc1ccc([N+](=O)[O-])cc1 |
| 50 to 52 °C | Cc1ccccc1CCOS(N)(=O)=O |

| melting point | SMILES |
| --- | --- |
| 85 °C | COc1cc2c(cc1OCc1ccccc1)C(C#N)C2 (stereo unspecified) |
| 136 to 139 °C | CCOC(=O)Cc1ccc(NC(=O)C(COc2cccnc2)NS(=O)(=O)c2ccc(Cl)cc2)cc1 (racemic) |
| 286 to 290 °C | Cn1c(=O)c(-c2c(Cl)cccc2Cl)cc2cnc(Nc3ccc(CC(=O)O)cc3)nc21 |
| 183 to 187 °C | CC(=O)N(c1cc([N+](=O)[O-])c(F)cc1Cl)S(=O)(=O)CCl |
| 67 to 70.5 °C | CC(C)(C)c1ccc(NC=CS(=O)(=O)F)cc1 |
| 262 to 264 °C | O=C(O)c1ccc2c(c1)C(=O)N(c1ccccc1C(=O)O)C2=O |
| 94 °C | O=C1CCC(c2ccc(-c3ccc([N+](=O)[O-])cc3F)cc2)O1 (stereo unspecified) |
| 146 to 147 °C | CN1CC[C@@H](c2c(O)cc(O)c3c(=O)cc(-c4cccc(Cl)c4)oc23)[C@@H]1CO |
| 134 to 140 °C | CCN1C(=O)C(C)(C)C(=O)N(C)c2cc(CCN(CCn3ccc4oc(C)cc4c3=O)Cc3cc(C)nn3C)ccc21 |
| 313 °C | COc1cc(C(=O)c2ncc3ccc(C(=O)O)cn23)ccc1[N+](=O)[O-] |
| 212 to 219 °C | CCOC(=O)c1ccc(N=C(Nc2ccc(C(=O)OCC)cc2)c2ccc(C(C)(C)C)cc2)cc1 |
| 62 to 64 °C | CC(O)c1cccc([N+](=O)[O-])c1Cl (stereo unspecified) |
| 220 to 221 °C | Cc1ccc(-c2ccc(C(=O)Nc3ccc4cc(CN5CCCC5)cnc4c3C)cc2)s1 |
| 145 to 148 °C | O=C1c2cc3nnn(CCCc4cccc(F)c4)c(=O)c3cc2OC2CCCN12 (stereo unspecified) |
| 118 to 119 °C | CCOC(=O)Cc1c(SC)c2cc(F)ccc2n1Cc1ccc(Cl)cc1 |
| 188 to 190 °C | O=C(c1ccc(OCc2ccccc2)cc1)c1ccc(OCc2ccccc2)cc1 |
| > 235 °C | Cc1cccc(C)c1-c1cc(Cl)cc2c1OC(CN1CCCCC1)C2 (stereo unspecified) |
| 194 to 198 °C | CNS(=O)(=O)/C=C/c1cc(Cl)cnc1N |
| 152 to 154 °C | COC(=O)Cc1c(C)n(-c2nc(OC)nc3ccccc23)c2ccc(OC)cc12 |
| 191 to 192 °C | N#Cc1c(Nc2cccnc2)nn(Cc2ccccc2)c1N |
| 118 to 120 °C | CN1NC(=O)CSC1=Nc1ccc(Cl)c(Cl)c1 |
| 295 to 297 °C | CCOc1ccc2c(=O)cc(-c3ccccc3O)oc2c1 |
| 111 to 112 °C | C[C@]1(CN2CCC(Cc3ccc(OC(F)(F)F)cc3)CC2)Cn2cc([N+](=O)[O-])nc2O1 |

| melting point | SMILES |
| --- | --- |
| 66 to 68 °C | Cn1c(=O)on(-c2cc(F)ccc2F)c1=O |
| 82 to 85 °C | C(=CCON(Cc1ccccc1)Cc1ccccc1)CON(Cc1ccccc1)Cc1ccccc1 |
| 136 to 140 °C | CCOC(=O)COc1ccc(-c2ccc(Cl)c(C(=O)NCC34CC5CC(CC(C5)C3)C4)c2)cc1 |
| 86 to 88.5 °C | Cc1cc(C)c2c(c1)OC(C)(COc1ccc([N+](=O)[O-])cc1)CC2=O (stereo unspecified) |
| 238 to 240 °C | COn1cnc2c(N)nc3ccccc3c21 |
| 214 to 217 °C | CS(=O)(=O)Nc1ccc2c(c1)C(=O)C(C1CCN(CCc3ccc4nonc4c3)CC1)C2 (stereo unspecified) |
| 169 to 171 °C | ON=CNc1nc(OCc2ccc(F)cc2)ncc1F |
| 121 to 123 °C | Cc1c(C)c2c(c(C)c1O)C(=O)CC(CCC(C)CCCC(C)C)(COc1ccc([N+](=O)[O-])cc1)O2 (stereo unspecified) |
| 150 to 151 °C | NC(=O)c1c(-c2ccc(Cl)cc2)csc1N |
| > 200 °C | CN(C)Cc1ccc(-c2csc(NC(=N)N)n2)o1 |
| 266 to 267 °C | CC(=O)Nc1nc2c(s1)-c1nn(C(=O)c3ccccc3)cc1CC2 |
| 117 to 119 °C | NS(=O)(=O)c1cc(C(=O)CCCCCl)cc2c1CCC2 |
| 153 to 156 °C | COc1ccc(-c2sc3c(c2C)c(=O)c(CO)cn3Cc2ccccc2OC)cc1 |
| 223 °C | Cc1[nH]ncc1C(=O)O |
| 41 to 44 °C | COc1ccc(-c2sc3ccccc3c2C(=O)c2ccc(OCCN3CCCCC3)cc2)cc1 |
| 110 to 111 °C | CCCc1c(OCCCCCCc2cc(O)c(O)cc2F)ccc(C(=O)O)c1O |
| 278 to 279 °C | N#Cc1cccc2[nH]c(C(=O)O)cc(=O)c12 |
| 172 to 173 °C | CCc1c(C)c(NC(=O)CC(C)(C)C)c(C)c2c1SCC2c1ccc(C(C)C)cc1 (stereo unspecified) |
| 236 °C | Cc1cc(-c2cc(C(F)F)n3ncc(-c4ccncc4)c3n2)ccc1C(F)(F)F |
| 92 °C | C=CCN1C(=O)COc2cc(Br)c(F)cc21 |
| 178 °C | Nc1cccc([C@H]2C[C@H]2NC(=O)Nc2ccc(Cl)cn2)c1 (racemic) |
| 55 °C | CC(C)(C)C(=O)Nc1cccc(P(c2ccccc2)c2cccc3ccccc23)n1 (stereo unspecified) |

| SMILES | melting point |
| --- | --- |
| CC(C)(C)OC(=O)c1ncn2c1[C@@H]1CCN1C(=O)c1c(I)cccc1-2 | 249 to 250 °C |
| CC(=O)NC(C)Cc1cc2c(cc1CCl)OCO2 (stereo unspecified) | 132 to 133 °C |
| Cc1cccc(-n2c(CF)nc3ccc([N+](=O)[O-])cc3c2=O)c1C | 178 to 180 °C |
| O=C(NCC1CC1)c1c(NC(=O)c2cc(C(F)(F)F)nn2-c2ncccc2Cl)c(Br)cc2cn[nH]c12 | 144 to 150 °C |
| CO[C@]12C[C@@H](CN3CCC(O)(c4cccc(C(F)(F)F)c4)CC3)CN(C)[C@@H]1Cc1c[nH]c3cccc2c13 | 135 to 140 °C |
